Legend:
[1] = target: Polyunsaturated fatty acid lipoxygenase ALOX15 (Homo sapiens) (UniProt P16050); experiment: Inhibition of Lipoxygenase 15-LO at compound concentration of 10.0 uM in the Eurofins-Panlabs enzyme assay (Eurofins_assay_199017); settings: Compound concentration 10.0 uM
[2] = target: Interleukin-1 receptor-associated kinase 1 (Homo sapiens) (UniProt P51617); experiment: IRAK1(h) Millipore kinase panel; settings: Compound concentration 1.0 uM
[3] = target: Cyclin-dependent kinase 4/cyclin D (Homo sapiens) (UniProt P11802+P24385+P30281+P30279); experiment: CDK4/cyclinD Millipore kinase panel; format: protein-complex assay; settings: Compound concentration 1.0 uM
[4] = target: Serine/threonine-protein kinase Chk2 (Homo sapiens) (UniProt O96017); experiment: CHK2(h) Millipore kinase panel; settings: Compound concentration 1.0 uM
Sequence of Serine/threonine-protein kinase Chk2 (Homo sapiens) (O96017 whole entry): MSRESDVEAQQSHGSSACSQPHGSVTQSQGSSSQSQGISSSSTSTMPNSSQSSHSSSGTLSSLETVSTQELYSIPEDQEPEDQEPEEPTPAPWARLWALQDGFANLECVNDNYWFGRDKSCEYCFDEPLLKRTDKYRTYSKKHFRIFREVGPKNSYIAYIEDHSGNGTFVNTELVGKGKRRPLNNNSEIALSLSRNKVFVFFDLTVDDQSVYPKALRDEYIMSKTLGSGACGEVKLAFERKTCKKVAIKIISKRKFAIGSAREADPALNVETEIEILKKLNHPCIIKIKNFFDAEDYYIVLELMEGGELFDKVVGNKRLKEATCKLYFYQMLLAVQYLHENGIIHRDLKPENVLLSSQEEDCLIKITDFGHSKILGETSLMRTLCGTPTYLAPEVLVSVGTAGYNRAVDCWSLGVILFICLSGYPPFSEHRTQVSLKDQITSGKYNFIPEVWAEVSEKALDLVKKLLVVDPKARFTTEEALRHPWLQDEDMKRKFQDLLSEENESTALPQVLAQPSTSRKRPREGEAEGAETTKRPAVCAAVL

[5] = target: Dual specificity protein kinase CLK4 (Homo sapiens) (UniProt Q9HAZ1); experiment: CLK4(h) Millipore kinase panel; settings: Compound concentration 1.0 uM
Sequence of Dual specificity protein kinase CLK4 (Homo sapiens) (Q9HAZ1 whole entry, looked up): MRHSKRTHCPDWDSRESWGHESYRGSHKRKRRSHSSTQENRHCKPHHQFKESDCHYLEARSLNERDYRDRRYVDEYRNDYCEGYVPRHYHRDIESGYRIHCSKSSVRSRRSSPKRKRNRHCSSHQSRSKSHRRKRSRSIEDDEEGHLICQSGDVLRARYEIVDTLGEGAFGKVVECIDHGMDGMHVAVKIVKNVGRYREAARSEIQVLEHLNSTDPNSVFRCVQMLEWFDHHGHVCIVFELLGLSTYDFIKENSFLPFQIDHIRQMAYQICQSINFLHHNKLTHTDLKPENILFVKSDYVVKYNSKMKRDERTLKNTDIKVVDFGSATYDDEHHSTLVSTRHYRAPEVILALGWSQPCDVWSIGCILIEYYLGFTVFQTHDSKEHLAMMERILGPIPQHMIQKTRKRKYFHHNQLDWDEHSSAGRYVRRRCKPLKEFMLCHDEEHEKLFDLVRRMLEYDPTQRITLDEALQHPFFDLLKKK

[6] = target: Serine/threonine-protein kinase N2 (Homo sapiens) (UniProt Q16513); experiment: PRK2(h) Millipore kinase panel; settings: Compound concentration 1.0 uM
[7] = target: Dual specificity protein kinase TTK (Homo sapiens) (UniProt P33981); experiment: TTK(h) Millipore kinase panel; settings: Compound concentration 1.0 uM
[8] = target: Serine/threonine-protein kinase PLK4 (Homo sapiens) (UniProt O00444); experiment: Plk4(h) Millipore kinase panel; settings: Compound concentration 1.0 uM
[9] = target: Cyclin-dependent kinase 1/cyclin B (Homo sapiens) (UniProt P06493+P14635+Q8WWL7+O95067); experiment: CDK1/cyclinB(h) Millipore kinase panel; format: protein-complex assay; settings: Compound concentration 1.0 uM
[10] = target: Serine/threonine-protein kinase 25 (Homo sapiens) (UniProt O00506); experiment: STK25(h) Millipore kinase panel; settings: Compound concentration 1.0 uM
Sequence of Serine/threonine-protein kinase 25 (Homo sapiens) (O00506 whole entry, looked up): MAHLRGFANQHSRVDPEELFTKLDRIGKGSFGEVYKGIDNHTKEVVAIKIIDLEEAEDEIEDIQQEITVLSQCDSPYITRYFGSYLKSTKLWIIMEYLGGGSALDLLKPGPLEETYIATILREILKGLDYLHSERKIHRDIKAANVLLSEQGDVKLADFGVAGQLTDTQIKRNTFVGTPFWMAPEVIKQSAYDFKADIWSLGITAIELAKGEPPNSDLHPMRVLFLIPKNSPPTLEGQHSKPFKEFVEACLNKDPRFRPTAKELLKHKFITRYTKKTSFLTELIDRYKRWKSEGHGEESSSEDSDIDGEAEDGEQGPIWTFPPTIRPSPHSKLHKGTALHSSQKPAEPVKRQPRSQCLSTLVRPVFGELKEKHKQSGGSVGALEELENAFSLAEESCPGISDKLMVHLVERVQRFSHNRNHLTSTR

[11] = target: GABA-A receptor; anion channel; experiment: GPCRScan assay: inhibition of GABAA/BZP; format: protein-complex assay, Rattus norvegicus; parameters: radioligand conc. used [nm] 0.6 – 4.0, parental cells brain tissue
[12] = target: Dual specificity mitogen-activated protein kinase kinase 1 (Homo sapiens) (UniProt Q02750); experiment: MEK1(h) Millipore kinase panel; settings: Compound concentration 1.0 uM
[13] = target: Tyrosine-protein kinase Tec (Homo sapiens) (UniProt P42680); experiment: Tec(h) activated Millipore kinase panel; settings: Compound concentration 1.0 uM
[14] = target: Serine/threonine-protein kinase Nek11 (Homo sapiens) (UniProt Q8NG66); experiment: NEK11(h) Millipore kinase panel; settings: Compound concentration 1.0 uM
Sequence of Serine/threonine-protein kinase Nek11 (Homo sapiens) (Q8NG66 whole entry): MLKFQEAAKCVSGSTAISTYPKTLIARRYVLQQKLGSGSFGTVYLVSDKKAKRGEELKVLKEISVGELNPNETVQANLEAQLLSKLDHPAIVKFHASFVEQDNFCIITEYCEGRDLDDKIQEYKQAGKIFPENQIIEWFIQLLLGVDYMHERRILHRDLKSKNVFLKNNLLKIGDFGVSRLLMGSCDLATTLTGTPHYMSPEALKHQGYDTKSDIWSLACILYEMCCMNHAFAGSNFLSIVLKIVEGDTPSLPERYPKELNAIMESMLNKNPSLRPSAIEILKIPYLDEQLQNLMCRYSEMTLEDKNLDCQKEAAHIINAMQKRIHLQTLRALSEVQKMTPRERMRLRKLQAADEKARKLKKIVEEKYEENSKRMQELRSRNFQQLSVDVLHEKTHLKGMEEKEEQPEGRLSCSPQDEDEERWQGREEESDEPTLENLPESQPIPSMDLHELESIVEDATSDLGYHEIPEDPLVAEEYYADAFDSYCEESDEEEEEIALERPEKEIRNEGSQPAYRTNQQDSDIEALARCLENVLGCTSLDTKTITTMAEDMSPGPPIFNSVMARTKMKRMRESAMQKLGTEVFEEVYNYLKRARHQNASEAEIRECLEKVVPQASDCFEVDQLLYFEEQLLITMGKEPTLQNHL

[15] = target: cGMP-dependent protein kinase 2 (Homo sapiens) (UniProt Q13237); experiment: PRKG2(h) Millipore kinase panel; settings: Compound concentration 1.0 uM
[16] = target: Glutamate NMDA receptor (Rattus norvegicus) (UniProt P35439+Q00959+Q00960+Q00961+Q62645+Q8VHN2+Q9R1M7); settings: Compound concentration 10.0 uM
[17] = target: Serine/threonine-protein kinase 4 (Homo sapiens) (UniProt Q13043); experiment: MST1(h) Millipore kinase panel; settings: Compound concentration 1.0 uM
Sequence of Serine/threonine-protein kinase 4 (Homo sapiens) (Q13043 whole entry): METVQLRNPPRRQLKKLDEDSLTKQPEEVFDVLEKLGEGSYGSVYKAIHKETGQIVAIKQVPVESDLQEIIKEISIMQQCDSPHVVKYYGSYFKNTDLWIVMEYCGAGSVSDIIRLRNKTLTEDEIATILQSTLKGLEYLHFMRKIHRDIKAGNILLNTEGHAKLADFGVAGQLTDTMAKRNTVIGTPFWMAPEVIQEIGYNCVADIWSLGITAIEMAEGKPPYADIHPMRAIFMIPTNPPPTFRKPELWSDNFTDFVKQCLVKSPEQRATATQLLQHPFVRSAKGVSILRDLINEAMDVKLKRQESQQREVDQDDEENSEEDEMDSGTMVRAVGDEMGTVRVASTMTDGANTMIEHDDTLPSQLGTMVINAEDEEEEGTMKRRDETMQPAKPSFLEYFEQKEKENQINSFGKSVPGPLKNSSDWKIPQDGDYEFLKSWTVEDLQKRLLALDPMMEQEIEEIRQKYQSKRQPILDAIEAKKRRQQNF

[18] = target: Serine/threonine-protein kinase Nek6 (Homo sapiens) (UniProt Q9HC98); experiment: NEK6(h) Millipore kinase panel; settings: Compound concentration 1.0 uM
[19] = target: Insulin-like growth factor 1 receptor (Homo sapiens) (UniProt P08069); experiment: IGF-1R(h), activated Millipore kinase panel; settings: Compound concentration 1.0 uM
[20] = target: T1, Alpha-2C adrenergic receptor (Homo sapiens) (UniProt P18825); settings: Compound concentration 10.0 uM
T1 sequence (whole entry): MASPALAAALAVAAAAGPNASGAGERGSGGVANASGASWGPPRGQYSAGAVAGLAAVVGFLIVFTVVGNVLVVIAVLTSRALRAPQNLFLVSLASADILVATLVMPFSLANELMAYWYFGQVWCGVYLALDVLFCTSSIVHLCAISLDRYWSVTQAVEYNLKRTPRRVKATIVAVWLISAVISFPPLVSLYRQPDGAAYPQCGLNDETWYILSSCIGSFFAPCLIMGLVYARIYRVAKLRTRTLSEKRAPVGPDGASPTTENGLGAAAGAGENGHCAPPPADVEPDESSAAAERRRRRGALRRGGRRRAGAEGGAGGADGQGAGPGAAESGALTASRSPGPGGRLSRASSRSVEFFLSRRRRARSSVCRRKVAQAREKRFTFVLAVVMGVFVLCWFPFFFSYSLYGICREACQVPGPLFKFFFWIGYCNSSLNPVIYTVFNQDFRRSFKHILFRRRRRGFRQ

[21] = target: Histamine H1 receptor (Homo sapiens) (UniProt P35367); settings: Compound concentration 10.0 uM
[22] = target: 5-hydroxytryptamine receptor 2B (Homo sapiens, UniProt P41595); experiment: GPCRScan assay: inhibition of 5-HT2B; parameters: radioligand conc. used [nm] 1.0 – 2.0, parental cells stable HEK
[23] = target: Death-associated protein kinase 3 (Homo sapiens) (UniProt O43293); experiment: ZIPK(h) Millipore kinase panel; settings: Compound concentration 1.0 uM
[24] = target: Phosphatidylinositol 5-phosphate 4-kinase type-2 alpha (Homo sapiens) (UniProt P48426); settings: Compound concentration 1.0 uM
[25] = target: Serine/threonine-protein kinase OSR1 (Homo sapiens) (UniProt O95747); experiment: OSR1(h) Millipore kinase panel; settings: Compound concentration 1.0 uM
[26] = target: cGMP-dependent protein kinase 1 (Homo sapiens) (UniProt Q13976); experiment: PKG1alpha(h) Millipore kinase panel; settings: Compound concentration 1.0 uM
[27] = target: Glutamate receptor 2 (Homo sapiens) (UniProt P42262); settings: Rattus norvegicus; Compound concentration 10.0 uM
[28] = target: Serine/threonine-protein kinase haspin (Homo sapiens) (UniProt Q8TF76); experiment: Haspin(h) Millipore kinase panel; settings: Compound concentration 1.0 uM
[29] = target: Dual specificity protein kinase CLK2 (Homo sapiens) (UniProt P49760); experiment: CLK2(h) Millipore kinase panel; settings: Compound concentration 1.0 uM
Sequence of Dual specificity protein kinase CLK2 (Homo sapiens) (P49760 whole entry, looked up): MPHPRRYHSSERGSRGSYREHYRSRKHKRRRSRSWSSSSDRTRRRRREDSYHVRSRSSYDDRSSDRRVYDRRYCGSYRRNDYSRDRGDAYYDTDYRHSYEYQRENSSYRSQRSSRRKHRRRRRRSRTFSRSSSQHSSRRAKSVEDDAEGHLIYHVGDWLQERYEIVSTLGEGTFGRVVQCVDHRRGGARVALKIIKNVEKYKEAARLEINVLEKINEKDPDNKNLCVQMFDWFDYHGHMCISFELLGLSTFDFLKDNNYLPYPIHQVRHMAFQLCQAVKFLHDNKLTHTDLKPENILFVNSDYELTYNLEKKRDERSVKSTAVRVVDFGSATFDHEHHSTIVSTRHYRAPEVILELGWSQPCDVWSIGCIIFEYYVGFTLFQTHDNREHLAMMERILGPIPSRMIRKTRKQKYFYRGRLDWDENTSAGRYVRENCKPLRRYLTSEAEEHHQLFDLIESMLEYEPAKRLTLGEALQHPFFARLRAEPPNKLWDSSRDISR

[30] = target: Serine/threonine-protein kinase 26 (Homo sapiens) (UniProt Q9P289); experiment: MST4(h) Millipore kinase panel; settings: Compound concentration 1.0 uM
[31] = target: Muscarinic acetylcholine receptor M3 (Homo sapiens) (UniProt P20309); settings: Compound concentration 10.0 uM
[32] = target: Tau-tubulin kinase 1 (Homo sapiens) (UniProt Q5TCY1); experiment: TTBK1(h) Millipore kinase panel; settings: Compound concentration 1.0 uM
[33] = target: Protein-tyrosine kinase 6 (Homo sapiens) (UniProt Q13882); experiment: BRK(h) Millipore kinase panel; settings: Compound concentration 1.0 uM
[34] = target: Serine/threonine-protein kinase WNK2 (Homo sapiens) (UniProt Q9Y3S1); experiment: WNK2(h) Millipore kinase panel; settings: Compound concentration 1.0 uM
[35] = target: SRSF protein kinase 2 (Homo sapiens) (UniProt P78362); experiment: SRPK2(h) Millipore kinase panel; settings: Compound concentration 1.0 uM
[36] = target: Serine/threonine-protein kinase 24 (Homo sapiens) (UniProt Q9Y6E0); experiment: MST3(h) Millipore kinase panel; settings: Compound concentration 1.0 uM
[37] = target: Vascular endothelial growth factor receptor 1 (Homo sapiens) (UniProt P17948); experiment: Flt1(h) Millipore kinase panel; settings: Compound concentration 1.0 uM
[38] = target: Casein kinase II subunit alpha' (Homo sapiens) (UniProt P19784); experiment: CK2alpha2(h) Millipore kinase panel; settings: Compound concentration 1.0 uM
[39] = target: cAMP-dependent protein kinase catalytic subunit alpha (Homo sapiens) (UniProt P17612); experiment: PKA(h) Millipore kinase panel; settings: Compound concentration 1.0 uM
[40] = target: Wee1-like protein kinase 2 (Homo sapiens) (UniProt P0C1S8); experiment: Wee1B(h) Millipore kinase panel; settings: Compound concentration 1.0 uM
Sequence of Wee1-like protein kinase 2 (Homo sapiens) (P0C1S8 whole entry, looked up): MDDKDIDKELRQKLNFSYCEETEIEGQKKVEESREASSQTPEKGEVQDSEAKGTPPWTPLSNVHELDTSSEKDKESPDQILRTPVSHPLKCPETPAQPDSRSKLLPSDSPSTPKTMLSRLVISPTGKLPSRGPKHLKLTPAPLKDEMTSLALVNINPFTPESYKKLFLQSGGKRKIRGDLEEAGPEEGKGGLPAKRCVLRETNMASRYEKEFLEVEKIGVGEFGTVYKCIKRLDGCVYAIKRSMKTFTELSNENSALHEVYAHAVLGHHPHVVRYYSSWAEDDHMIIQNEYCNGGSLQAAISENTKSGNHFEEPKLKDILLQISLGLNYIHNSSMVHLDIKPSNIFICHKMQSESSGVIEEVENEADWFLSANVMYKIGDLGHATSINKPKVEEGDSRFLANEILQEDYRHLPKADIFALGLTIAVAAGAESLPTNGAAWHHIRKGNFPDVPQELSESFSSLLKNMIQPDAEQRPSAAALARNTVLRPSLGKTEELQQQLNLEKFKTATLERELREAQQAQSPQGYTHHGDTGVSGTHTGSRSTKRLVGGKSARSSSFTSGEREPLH

[41] = target: Mitogen-activated protein kinase 9 (Homo sapiens) (UniProt P45984); experiment: JNK2alpha2(h) Millipore kinase panel; settings: Compound concentration 1.0 uM
Sequence of Mitogen-activated protein kinase 9 (Homo sapiens) (P45984 whole entry, looked up): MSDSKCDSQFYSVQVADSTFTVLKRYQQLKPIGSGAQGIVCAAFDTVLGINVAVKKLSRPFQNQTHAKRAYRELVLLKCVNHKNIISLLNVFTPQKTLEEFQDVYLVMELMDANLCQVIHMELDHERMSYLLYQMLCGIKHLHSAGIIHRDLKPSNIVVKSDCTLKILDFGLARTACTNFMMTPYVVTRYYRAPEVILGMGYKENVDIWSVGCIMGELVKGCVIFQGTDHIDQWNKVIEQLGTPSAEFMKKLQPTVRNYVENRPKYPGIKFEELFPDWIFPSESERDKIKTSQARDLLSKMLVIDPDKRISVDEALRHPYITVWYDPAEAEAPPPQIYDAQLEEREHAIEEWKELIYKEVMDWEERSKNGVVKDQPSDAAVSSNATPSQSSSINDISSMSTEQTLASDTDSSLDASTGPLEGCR

Sequence of Polyunsaturated fatty acid lipoxygenase ALOX15 (Homo sapiens) (P16050 whole entry): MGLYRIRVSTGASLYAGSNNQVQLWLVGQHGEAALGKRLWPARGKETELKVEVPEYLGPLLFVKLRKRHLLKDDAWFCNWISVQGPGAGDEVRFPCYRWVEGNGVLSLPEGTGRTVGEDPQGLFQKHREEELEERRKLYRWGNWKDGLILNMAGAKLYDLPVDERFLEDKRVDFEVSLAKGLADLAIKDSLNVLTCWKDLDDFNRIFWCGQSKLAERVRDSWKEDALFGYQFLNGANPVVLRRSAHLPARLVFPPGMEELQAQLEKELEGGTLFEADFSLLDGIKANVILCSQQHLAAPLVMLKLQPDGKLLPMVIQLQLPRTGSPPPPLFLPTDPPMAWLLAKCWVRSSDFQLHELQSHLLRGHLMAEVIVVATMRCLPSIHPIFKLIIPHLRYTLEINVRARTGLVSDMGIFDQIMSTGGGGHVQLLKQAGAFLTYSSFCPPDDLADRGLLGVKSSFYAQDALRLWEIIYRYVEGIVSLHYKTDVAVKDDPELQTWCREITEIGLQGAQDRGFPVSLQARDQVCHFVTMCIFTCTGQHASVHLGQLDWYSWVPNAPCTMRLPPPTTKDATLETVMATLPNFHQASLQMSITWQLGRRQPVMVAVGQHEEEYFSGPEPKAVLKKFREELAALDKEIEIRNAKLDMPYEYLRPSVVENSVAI

CC[C@@H](Nc1c(C#N)c(-c2ccc(-c3cccc(C)c3F)cc2)nc2cnccc12)C(=O)O [BAY-091]
1.5 µM: Ki [22]
6.83 µM: Ki [11]
inactive: inhibition [1] 20% | inhibition [2] -3.31% | inhibition [3] 11.3% | inhibition [4] 5.38% | inhibition [5] 18.8% | inhibition [6] 5.02% | inhibition [7] -9.1% | inhibition [8] -8.83% | inhibition [9] 8.82% | inhibition [10] 3.01% | inhibition [12] 21.5% | inhibition [13] 4.62% | inhibition [14] 7.12% | inhibition [15] 12.7% | inhibition [16] -3% | inhibition [17] 20.6% | inhibition [18] 9.31% | inhibition [19] 12% | inhibition [20] -6.87% | inhibition [21] 12.3% | inhibition [23] 0.91% | inhibition [24] 142% | inhibition [25] -3.86% | inhibition [26] 6.77% | inhibition [27] -4% | inhibition [28] 14.2% | inhibition [29] 0.07% | inhibition [30] 5.69% | inhibition [31] -8.52% | inhibition [32] -2.05% | inhibition [33] 8.07% | inhibition [34] 3.31% | inhibition [35] -8.51% | inhibition [36] 1.03% | inhibition [37] 56.8% | inhibition [38] -4.36% | inhibition [39] 11% | inhibition [40] 9.64% | inhibition [41] -1.41%
